ChEMBL document CHEMBL3045600, “Synthesis and Fungicidal Activities of Phenoxyphenyl Alkoxyiminoacetamide Derivatives” (J Pestic Sci, 1998)

How the values were obtained:
Alternaria alternata = assay: Fungicidal activity against Alternaria alternata apple pathotype assessed as inhibition of mycelial growth by agar dilution method; format: functional, organism-based
Podosphaera fuliginea [1] = assay: Fungicidal activity against Podosphaera fuliginea assessed as cucumber powdery mildew control under greenhouse at 125 ppm foliar application 24 hr after inoculation on upper surface of leaf at 23 +/- 2 degC by curative manner; format: functional
Thanatephorus cucumeris [2] = assay: Fungicidal activity against Thanatephorus cucumeris assessed as rice sheath blight disease control at 7.8 ppm foliar application for 24 hr before inoculation at 26 +- 2 measured after 5 days by preventive manner; format: functional
[3] = tested on: Pseudoperonospora cubensis; assay: Fungicidal activity against Pseudoperonospora cubensis assessed as cucumber downy mildew disease control at 2 ppm foliar application 24 hr after inoculation on upper surface of leaf by curative manner; format: functional
Botrytis cinerea [4] = assay: Fungicidal activity against Botryotinia fuckeliana assessed as cucumber gray mold disease control at 7.8 ppm foliar application 24 hr after inoculation at 22 +/- 2 degC measured after 3 days by curative manner; format: functional
Botrytis cinerea [5] = assay: Fungicidal activity against Botryotinia fuckeliana assessed as cucumber gray mold disease control at 2 ppm foliar application 24 hr after inoculation at 22 +/- 2 degC measured after 3 days by curative manner; format: functional
Botrytis cinerea [6] = assay: Fungicidal activity against Botryotinia fuckeliana assessed as cucumber gray mold disease control at 7.8 ppm foliar application 24 hr before inoculation at 22 +/- 2 degC measured after 3 days by preventive manner; format: functional
Thanatephorus cucumeris [7] = assay: Fungicidal activity against Thanatephorus cucumeris assessed as rice sheath blight disease control at 31.3 ppm foliar application for 24 hr before inoculation at 26 +- 2 measured after 5 days by preventive manner; format: functional
Thanatephorus cucumeris [8] = assay: Fungicidal activity against Thanatephorus cucumeris assessed as rice sheath blight disease control at 125 ppm foliar application for 24 hr before inoculation at 26 +- 2 measured after 5 days by preventive manner; format: functional
Podosphaera fuliginea [9] = assay: Fungicidal activity against Podosphaera fuliginea assessed as cucumber powdery mildew control under greenhouse at 7.8 ppm foliar application 24 hr after inoculation on upper surface of leaf at 23 +/- 2 degC by curative manner; format: functional
[10] = tested on: Pseudoperonospora cubensis; assay: Fungicidal activity against Pseudoperonospora cubensis assessed as cucumber downy mildew disease control at 7.8 ppm foliar application 24 hr after inoculation on upper surface of leaf by curative manner; format: functional
Botrytis cinerea [11] = assay: Fungicidal activity against Botryotinia fuckeliana assessed as cucumber gray mold disease control at 125 ppm foliar application 24 hr after inoculation at 22 +/- 2 degC measured after 3 days by curative manner; format: functional
[12] = tested on: Pseudoperonospora cubensis; assay: Fungicidal activity against Pseudoperonospora cubensis assessed as cucumber downy mildew disease control at 31.3 ppm foliar application 24 hr before inoculation on upper surface of leaf by preventive manner; format: functional
Pyricularia oryzae [13] = assay: Fungicidal activity against Magnaporthe oryzae assessed as rice blast disease control at 0.63 ppm submerged application measured after 7 days; format: functional
Fusarium oxysporum = assay: Fungicidal activity against Fusarium oxysporum assessed as inhibition of mycelial growth by agar dilution method; format: functional, organism-based
Botrytis cinerea [14] = assay: Fungicidal activity against Botryotinia fuckeliana assessed as cucumber gray mold disease control at 31.3 ppm foliar application 24 hr after inoculation at 22 +/- 2 degC measured after 3 days by curative manner; format: functional
Botrytis cinerea [15] = assay: Fungicidal activity against Botryotinia fuckeliana assessed as cucumber gray mold disease control at 125 ppm foliar application 24 hr before inoculation at 22 +/- 2 degC measured after 3 days by preventive manner; format: functional
Pyricularia oryzae [16] = assay: Fungicidal activity against Magnaporthe oryzae assessed as inhibition of mycelial growth by agar dilution method; format: functional, organism-based
Podosphaera fuliginea [17] = assay: Fungicidal activity against Podosphaera fuliginea assessed as cucumber powdery mildew control under greenhouse at 2 ppm foliar application 24 hr after inoculation on upper surface of leaf at 23 +/- 2 degC by curative manner; format: functional
[18] = tested on: Pseudoperonospora cubensis; assay: Fungicidal activity against Pseudoperonospora cubensis assessed as cucumber downy mildew disease control at 7.8 ppm foliar application 24 hr before inoculation on upper surface of leaf by preventive manner; format: functional
[19] = tested on: Pseudoperonospora cubensis; assay: Fungicidal activity against Pseudoperonospora cubensis assessed as cucumber downy mildew disease control at 125 ppm foliar application 24 hr before inoculation on upper surface of leaf by preventive manner; format: functional
Cladosporium herbarum = assay: Fungicidal activity against Cladosporium herbarum assessed as inhibition of mycelial growth by agar dilution method; format: functional, organism-based
Podosphaera fuliginea [20] = assay: Fungicidal activity against Podosphaera fuliginea assessed as cucumber powdery mildew control under greenhouse at 125 ppm foliar application 24 hr before inoculation on upper surface of leaf at 23 +/- 2 degC by preventive manner; format: functional
Pyricularia oryzae [21] = assay: Fungicidal activity against Magnaporthe oryzae assessed as rice blast disease control at 0.16 ppm submerged application measured after 7 days; format: functional
Pythium aphanidermatum = assay: Fungicidal activity against Pythium aphanidermatum assessed as inhibition of mycelial growth by agar dilution method; format: functional, organism-based
Colletotrichum lagenaria = assay: Fungicidal activity against Colletotrichum lagenaria assessed as inhibition of mycelial growth by agar dilution method; format: functional, organism-based
Podosphaera fuliginea [22] = assay: Fungicidal activity against Podosphaera fuliginea assessed as cucumber powdery mildew control under greenhouse at 31.3 ppm foliar application 24 hr before inoculation on upper surface of leaf at 23 +/- 2 degC by preventive manner; format: functional
Botrytis cinerea [23] = assay: Fungicidal activity against Botryotinia fuckeliana assessed as inhibition of mycelial growth by agar dilution method; format: functional, organism-based
Botrytis cinerea [24] = assay: Fungicidal activity against Botryotinia fuckeliana assessed as cucumber gray mold disease control at 31.3 ppm foliar application 24 hr before inoculation at 22 +/- 2 degC measured after 3 days by preventive manner; format: functional
Sclerotinia sclerotiorum = assay: Fungicidal activity against Sclerotinia sclerotiorum assessed as inhibition of mycelial growth by agar dilution method; format: functional, organism-based
Pyricularia oryzae [25] = assay: Fungicidal activity against Magnaporthe oryzae assessed as rice blast disease control at 2.5 ppm submerged application measured after 7 days; format: functional
Podosphaera fuliginea [26] = assay: Fungicidal activity against Podosphaera fuliginea assessed as cucumber powdery mildew control under greenhouse at 7.8 ppm foliar application 24 hr before inoculation on upper surface of leaf at 23 +/- 2 degC by preventive manner; format: functional
[27] = tested on: Pseudoperonospora cubensis; assay: Fungicidal activity against Pseudoperonospora cubensis assessed as cucumber downy mildew disease control at 125 ppm foliar application 24 hr after inoculation on upper surface of leaf by curative manner; format: functional
Pyricularia oryzae [28] = assay: Fungicidal activity against Magnaporthe oryzae assessed as rice blast disease control at 10 ppm submerged application measured after 7 days; format: functional
[29] = tested on: Pseudoperonospora cubensis; assay: Fungicidal activity against Pseudoperonospora cubensis assessed as cucumber downy mildew disease control at 31.3 ppm foliar application 24 hr after inoculation on upper surface of leaf by curative manner; format: functional
[30] = tested on: Colletotrichum gloeosporioides; assay: Fungicidal activity against Glomerella cingulata assessed as inhibition of mycelial growth by agar dilution method; format: functional, organism-based
Athelia rolfsii = assay: Fungicidal activity against Athelia rolfsii assessed as inhibition of mycelial growth by agar dilution method; format: functional, organism-based, Agroathelia rolfsii
Podosphaera fuliginea [31] = assay: Fungicidal activity against Podosphaera fuliginea assessed as cucumber powdery mildew control under greenhouse at 31.3 ppm foliar application 24 hr after inoculation on upper surface of leaf at 23 +/- 2 degC by curative manner; format: functional

Row | Compound | EC50 (Alternaria alternata) [ppm] | Activity (Thanatephorus cucumeris [2]) [%] | Activity (Botrytis cinerea [6]) [%] | Activity (Thanatephorus cucumeris [7]) [%] | Activity (Thanatephorus cucumeris [8]) [%] | Activity [12] [%] | EC50 (Fusarium oxysporum) [ppm] | Activity (Botrytis cinerea [15]) [%] | EC50 (Pyricularia oryzae [16]) [ppm] | Activity [18] [%] | Activity [19] [%] | EC50 (Cladosporium herbarum) [ppm] | Activity (Podosphaera fuliginea [20]) [%] | EC50 (Pythium aphanidermatum) [ppm] | EC50 (Colletotrichum lagenaria) [ppm] | Activity (Podosphaera fuliginea [22]) [%] | EC50 (Botrytis cinerea [23]) [ppm] | Activity (Botrytis cinerea [24]) [%] | EC50 (Sclerotinia sclerotiorum) [ppm] | Activity (Podosphaera fuliginea [26]) [%] | other results
1 | CNC(=O)/C(=N/OC)c1ccccc1Oc1ccccc1 [METOMINOSTROBIN] | 20.8 | 50 | 73 | 70 | 70 | 100 | 6.2 | 95 | 5.6 | 30 | 100 | 4.5 | 100 | 2.8 | 4.7 | 100 | 1.1 | 92 | 2 | 70 | Activity (Podosphaera fuliginea [1]): 50%; Activity [3]: 50%; Activity (Botrytis cinerea [4]): 50%; Activity (Botrytis cinerea [5]): 50%; Activity (Podosphaera fuliginea [9]): 50%; Activity [10]: 50%; Activity (Botrytis cinerea [11]): 50%; Activity (Pyricularia oryzae [13]): 50%; Activity (Botrytis cinerea [14]): 50%; Activity (Podosphaera fuliginea [17]): 50%; Activity (Pyricularia oryzae [21]): 50%; Activity (Pyricularia oryzae [25]): 50%; Activity [27]: 50%; Activity (Pyricularia oryzae [28]): 50%; Activity [29]: 50%; EC50 [30]: 7.2 ppm; EC50 (Athelia rolfsii): 2.5 ppm; Activity (Podosphaera fuliginea [31]): 50%
2 | CNC(=O)/C(=N\OC)c1ccccc1Oc1ccccc1 | > 64 | 0 | 18 | 0 | 50 | 0 | 58.1 | 44 | 49.1 | 0 | 70 | 41.8 | 100 | 28.1 | 61.8 | 100 | 1.7 | 36 | 11.9 | 40 | EC50 [30]: 16.2 ppm; EC50 (Athelia rolfsii): 41.1 ppm
